{"source": "patent US20040167103A1", "about": "“Haloacetamide and azide substituted compounds and methods of use thereof” (priority 2003, published 2004)", "key": {"[1]": {"tested_on": "prostate cancer cell lines DU 145, PC-3, TSU, PPC-1 and LNCaP", "assay": "Cell growth inhibition (sulforhodamine B assay), five prostate cancer cell lines together", "assay_type": "cell-based, human", "details": "statement in words", "method": "(§1) Prostate cancer cell lines were obtained from ATCC. All cells were grown in RPMI-1640 medium containing 2 mM L-glutamine supplemented with 10% fetal bovine serum (FBS) and maintained in a 5% CO2/95% air humidified atmosphere at 37° C.\n(§2) Cells were plated on 96-well plates and incubated with drug-containing culture medium (200 μL/well) for 4 (DU 145, PC-3, PPC-1, and TSU) or 6 (LNCaP) days. Medium was replaced with freshly prepared batches every other day during the incubation. At the end of drug treatment, an aliquot of 50 μL of cold (4° C.) trichloroacetic acid (TCA, 50%) was gently layered on the top of growth medium in each well to make a final TCA concentration of 10%. […] The cellular protein-bound SRB was then dissolved with 200 μL unbuffered Tris base (10 mM, pH 10.5) for 30 minutes on a rocking platform shaker, and absorbance at 540 nm was measured by a plate reader.\n(§3) Percentage of cell survival was calculated by absorbance at 540 nm in testing wells divided by absorbance in negative control wells (medium without the test compound). […]\n(§4) METHODS: LNCaP, DU145, PC-3, TSU, and PPC-1 cells were cultured in 96-well plates and treated with increasing concentrations of the compound of interest for 4 days. Cell survival was determined by the sulforhodamine B assay and was plotted as a percentage of control (drug-free wells) versus drug concentration. […]"}, "[2]": {"biological_target": "T1, cytosolic AR prepared from rat ventral prostates (Rattus norvegicus, UniProt P15207)", "T1 construct": "cytosolic AR prepared from rat ventral prostates; from tissue; host or cells: rat ventral prostate cytosol", "T1 sequence (P15207 1-902)": "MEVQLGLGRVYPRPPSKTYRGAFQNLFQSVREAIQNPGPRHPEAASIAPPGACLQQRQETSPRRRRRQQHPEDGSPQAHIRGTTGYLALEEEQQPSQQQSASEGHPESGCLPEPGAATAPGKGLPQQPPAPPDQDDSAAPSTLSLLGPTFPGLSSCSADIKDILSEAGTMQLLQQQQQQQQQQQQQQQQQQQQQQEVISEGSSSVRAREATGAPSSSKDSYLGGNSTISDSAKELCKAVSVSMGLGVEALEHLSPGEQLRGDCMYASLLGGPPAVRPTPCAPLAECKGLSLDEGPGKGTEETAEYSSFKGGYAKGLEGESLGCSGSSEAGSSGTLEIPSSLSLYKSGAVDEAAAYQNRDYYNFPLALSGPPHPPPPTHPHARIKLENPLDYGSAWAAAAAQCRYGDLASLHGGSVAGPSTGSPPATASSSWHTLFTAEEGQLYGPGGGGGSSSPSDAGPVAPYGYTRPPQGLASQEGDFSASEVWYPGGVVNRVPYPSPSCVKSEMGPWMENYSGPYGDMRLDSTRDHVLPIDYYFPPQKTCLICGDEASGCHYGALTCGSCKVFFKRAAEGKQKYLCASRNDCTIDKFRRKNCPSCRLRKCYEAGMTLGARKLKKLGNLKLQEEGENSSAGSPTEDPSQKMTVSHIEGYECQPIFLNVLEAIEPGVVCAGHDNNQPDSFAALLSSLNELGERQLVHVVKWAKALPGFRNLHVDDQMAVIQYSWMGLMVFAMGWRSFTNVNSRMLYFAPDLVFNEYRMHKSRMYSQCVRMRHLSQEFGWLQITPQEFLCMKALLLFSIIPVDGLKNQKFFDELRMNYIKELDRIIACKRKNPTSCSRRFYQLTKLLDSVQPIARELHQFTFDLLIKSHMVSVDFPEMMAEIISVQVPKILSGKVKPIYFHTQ", "assay": "Androgen receptor radioligand competitive binding assay (3H-mibolerone)", "method": "The AR binding affinity of test compounds was determined by a radioligand competitive binding assay with cytosolic AR prepared from rat ventral prostates. […] After incubation, the protein-bound radioactivity was separated from free radioactivity by HAP precipitation. The bound radioactivity was then extracted from HAP by ethanol, and counted in a Beckman LS6800 liquid scintillation counter (Beckman Instruments Inc., Palo Alto, Calif.). Nonspecific binding was determined separately by including 1,000 nM of unlabeled MIB in the incubate. The binding data was fitted to the equation B=B0*[1-C/(IC50+C)] using WinNonlin."}, "LNCaP cells [3]": {"tested_on": "LNCaP cells", "assay": "Cell growth inhibition (sulforhodamine B assay), LNCaP", "assay_type": "cell-based, human", "details": "for Sensitivity of LNCaP cells compared with other cell lines: LNCaP the only androgen receptor expressing cell line tested; for IC50: Homo sapiens, LNCaP, SRB assay", "method": "as §1\nCells were plated on 96-well plates and incubated with drug-containing culture medium (200 μL/well) for 4 (DU 145, PC-3, PPC-1, and TSU) or 6 (LNCaP) days. Medium was replaced with freshly prepared batches every other day during the incubation. At the end of drug treatment, an aliquot of 50 μL of cold (4° C.) trichloroacetic acid (TCA, 50%) was gently layered on the top of growth medium in each well to make a final TCA concentration of 10%. The mixtures were incubated at 4° C. for 1 hour, and then washed 5 times with tap water to remove TCA, growth medium, low-molecular-weight metabolites, and serum proteins. The plates were air dried overnight. Next, fixed cells were stained with 50 μL of SRB solution (0.4%, wt/vol) for 10 minutes. After staining, SRB solution was decanted, and plates were quickly rinsed 5 times with 1% acetic acid to remove unbound dye and air dried overnight. The cellular protein-bound SRB was then dissolved with 200 μL unbuffered Tris base (10 mM, pH 10.5) for 30 minutes on a rocking platform shaker, and absorbance at 540 nm was measured by a plate reader.\nPercentage of cell survival was calculated by absorbance at 540 nm in testing wells divided by absorbance in negative control wells (medium without the test compound). Percentages of cell survival versus drug concentrations were plotted and the concentration of drug that inhibited cell growth by 50% (IC50) was determined by nonlinear regression using WinNonlin (Pharsight Corporation, Mountain View, Calif.).\nMETHODS: LNCaP, DU145, PC-3, TSU, and PPC-1 cells were cultured in 96-well plates and treated with increasing concentrations of the compound of interest for 4 days. Cell survival was determined by the sulforhodamine B assay and was plotted as a percentage of control (drug-free wells) versus drug concentration. The concentration of drug that inhibited cell growth by 50% (IC50) was determined by non-linear regression. Known anticancer drugs were used as cytotoxic positive controls."}, "LNCaP cells [4]": {"tested_on": "LNCaP cells", "assay": "TUNEL assay (apoptosis, DNA fragmentation)", "assay_type": "cell-based, human", "details": "LNCaP cells exposed for 24 hours, relative to 0.1% DMSO vehicle control", "method": "METHODS: DNA fragmentation of apoptotic cells was monitored by the TUNEL assay as described by the supplier. Briefly, LNCaP cells were plated at 2×10^5 cells/well in 2-well chamber slides and incubated at 37° C., 5% CO2 for 24 h to allow the cells sufficient time to attach and be in log phase growth at the start of the experiment. The media was aspirated and replaced with media containing vehicle control (DMSO) or drug dissolved in DMSO. The total volume of DMSO/drug added to each well was equal to 0.1% of the media volume in each well. LNCaP cells were treated with vehicle control, and increasing concentrations of Compound 1 and Compound 2 (0.1, 1.0, and 10.0 μM) for 24-48 h. Two wells were treated with the same concentration of the drugs or DMSO for each treatment condition listed above. The media was collected along with the trypsinized cells and centrifuged at 150×g for 4 min. […] Green and red fluorescence emissions were observed microscopically using 520 nm and >620 nm filters, respectively.\nRESULTS: The TUNEL assay is used to determine whether cells are undergoing apoptosis (cell death mechanism) as a result of drug treatment. […] TUNEL assay incorporates a dye that labels the 3′ ends of such DNA fragments which are then visualized by fluorescence. […]"}, "LNCaP cells [5]": {"tested_on": "LNCaP cells", "assay": "Growth curve (trypan blue cell count, 120 h), LNCaP compared with other lines", "assay_type": "cell-based, human", "method": "METHODS: Cells were plated at 5-10×10^4 cells/well in five 6-well plates and incubated at 37° C., 5% CO2 for 24 h to allow the cells sufficient time to attach and be in log phase growth at the start of the experiment. The media was aspirated from four of the plates and replaced with media containing vehicle control (DMSO) or drug dissolved in DMSO. The total volume of DMSO/drug added to each well was equal to 0.1% of the media volume in each well. LNCaP, PC-3, MCF-7, and CV-1 cells were treated with vehicle control, and increasing concentrations of Compound 1 and Compound 2 (0.01, 0.05, 0.1, 0.5, 1.0, 5.0, and 10.0 μM). Three wells were treated with the same concentration of the drugs or DMSO for each treatment condition listed above. The cells from the remaining 6-well plate were collected and counted to determine plating efficiency. The 6-well plates containing DMSO/drug were incubated for 120 h at 37° C., 5% CO2. After 120 h, the media from each well was collected along with trypsinized cells and centrifuged at 150×g for 4 min. The cells were resuspended in 1 mL of media, from which 90 μl was taken and combined with 10 μl trypan blue for counting on a hemacytometer."}, "PPC-1 cells": {"tested_on": "PPC-1 cells", "assay": "Cell growth inhibition (sulforhodamine B assay), PPC-1", "assay_type": "cell-based", "details": "Homo sapiens, PPC-1, 96 h, SRB assay, 4 days treatment", "method": "as §1, §2, §3, §4"}, "PC-3 cells": {"tested_on": "PC-3 cells", "assay": "Cell growth inhibition (sulforhodamine B assay), PC-3", "assay_type": "cell-based", "details": "Homo sapiens, PC-3, 96 h, SRB assay, 4 days treatment", "method": "as §1, §2, §3, §4"}, "TSU cells": {"tested_on": "TSU cells", "assay": "Cell growth inhibition (sulforhodamine B assay), TSU", "assay_type": "cell-based", "details": "Homo sapiens, 96 h, SRB assay, 4 days treatment", "method": "as §1, §2, §3, §4"}, "DU 145 cells": {"tested_on": "DU 145 cells", "assay": "Cell growth inhibition (sulforhodamine B assay), DU145", "assay_type": "cell-based", "details": "Homo sapiens, DU-145, 96 h, SRB assay, 4 days treatment", "method": "as §1, §2, §3, §4"}}}
{"compound": "C[C@](O)(COc1ccc(NC(=O)CBr)cc1)C(=O)Nc1ccc([N+](=O)[O-])c(C(F)(F)F)c1", "note": "[Compound 1]", "values": [{"measurement": "IC50 values in inhibiting the growth of all five prostate cancer cell lines", "setting": "[1]", "value": "low micro-molar range"}, {"measurement": "Ki", "setting": "[2]", "value": "13.9 ± 1.4", "unit": "nM"}, {"measurement": "Sensitivity of LNCaP cells compared with other cell lines", "setting": "LNCaP cells [3]", "value": "not more sensitive"}, {"measurement": "Apoptosis, DNA fragmentation (green fluorescence)", "setting": "LNCaP cells [4]", "value": "exhibit green fluorescence"}, {"measurement": "Growth inhibitory activity against various cancer cell lines", "setting": "LNCaP cells [5]; LNCaP versus PC-3, MCF-7 and CV-1 cells, 0.01-10.0 μM", "value": "non-selective growth inhibitory activity"}]}
{"compound": "C[C@](O)(COc1ccc(NC(=O)CCl)cc1)C(=O)Nc1ccc([N+](=O)[O-])c(C(F)(F)F)c1", "note": "[Compound 2]", "values": [{"measurement": "IC50 values in inhibiting the growth of all five prostate cancer cell lines", "setting": "[1]", "value": "low micro-molar range"}, {"measurement": "Ki", "setting": "[2]", "value": "1.9 ± 0.3", "unit": "nM"}, {"measurement": "Sensitivity of LNCaP cells compared with other cell lines", "setting": "LNCaP cells [3]", "value": "not more sensitive"}, {"measurement": "Apoptosis, DNA fragmentation (green fluorescence)", "setting": "LNCaP cells [4]", "value": "similar"}, {"measurement": "Fold sensitivity of LNCaP cells over PC-3 or CV-1 cells", "setting": "LNCaP cells [5]; growth curve", "value": "approximately 10 fold"}]}
{"compound": "C[C@@H]1CC2=CC(=O)CC[C@@H]2[C@H]2CC[C@@]3(C)[C@@H](CC[C@]3(C)O)[C@@H]21", "note": "[Compound 3H-MIB, 3H-mibolerone]", "values": [{"measurement": "Kd", "setting": "[2]; determined in preliminary experiments, read-out: Kd, equilibrium dissociation constant of 3H-MIB", "value": "0.19 ± 0.01", "unit": "nM"}]}
{"compound": "N[C@@H](Cc1ccc(N(CCCl)CCCl)cc1)C(=O)O", "note": "[Melphalan]", "values": [{"measurement": "IC50", "setting": "PPC-1 cells; Melphalan line, unit nM", "value": 16.2, "unit": "nM"}, {"measurement": "IC50", "setting": "LNCaP cells [3]; 4 or 6 days treatment, Melphalan line, unit nM", "value": 10.3, "unit": "nM"}, {"measurement": "IC50", "setting": "PC-3 cells; Melphalan line, unit nM", "value": "30.4 ± 3.1", "unit": "nM"}, {"measurement": "IC50", "setting": "TSU cells; Melphalan line, unit nM", "value": "4 ± 0.2", "unit": "nM"}, {"measurement": "IC50", "setting": "DU 145 cells; Melphalan line, unit nM", "value": 31, "unit": "nM"}]}
{"compound": "C[C@@](O)(CBr)C(=O)Nc1ccc([N+](=O)[O-])c(C(F)(F)F)c1", "note": "[S-NTBA]", "values": [{"measurement": "IC50", "setting": "PPC-1 cells", "value": "2200 ± 200", "unit": "nM"}, {"measurement": "IC50", "setting": "LNCaP cells [3]; 4 days or 6 days treatment", "value": "1300 ± 200", "unit": "nM"}, {"measurement": "IC50", "setting": "PC-3 cells", "value": "3100 ± 500", "unit": "nM"}, {"measurement": "IC50", "setting": "TSU cells", "value": "3500 ± 200", "unit": "nM"}, {"measurement": "IC50", "setting": "DU 145 cells", "value": "4700 ± 300", "unit": "nM"}]}
